Test results taken from patent US20130217664A1, “NOVEL COMPOUNDS USEFUL FOR THE TREATMENT OF DEGENERATIVE AND INFLAMMATORY DISEASES” (priority 2012, published 2013).

What was measured:
[1] = target: T1, human TYK2 (Homo sapiens, UniProt P29597); experiment: TYK2 inhibition assay; assay type: biochemical; conditions: recombinant human TYK2 catalytic domain, polyGT substrate
T1 construct: catalytic domain (amino acids 871-1187; catalog number 08-147); purchased Carna Biosciences 08-147
T1 sequence (P29597 871-1187): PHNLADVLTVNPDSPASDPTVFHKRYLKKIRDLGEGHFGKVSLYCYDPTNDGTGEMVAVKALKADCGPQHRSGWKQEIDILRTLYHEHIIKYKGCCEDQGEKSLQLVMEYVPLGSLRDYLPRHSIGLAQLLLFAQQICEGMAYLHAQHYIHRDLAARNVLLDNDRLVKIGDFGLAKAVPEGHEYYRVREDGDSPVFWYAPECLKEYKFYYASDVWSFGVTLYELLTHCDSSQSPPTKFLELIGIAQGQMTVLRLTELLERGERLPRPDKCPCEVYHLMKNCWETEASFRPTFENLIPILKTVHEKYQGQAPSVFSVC
Procedure, shortened: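 Radiometric kinase reaction run 90 min at 30 °C, stopped with phosphoric acid, washed and scintillation-counted.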

[2] = target: T2, human JAK2 (Homo sapiens, UniProt O60674); experiment: JAK2 inhibition assay (polyGT substrate / Ulight-JAK1 peptide); assay type: biochemical; conditions: recombinant human JAK2 catalytic domain; polyGT or Ulight-JAK1 peptide assay
T2 construct: catalytic domain (amino acids 808-1132; catalog number PV4210); GST; purchased Invitrogen PV4210
T2 sequence (O60674 808-1132): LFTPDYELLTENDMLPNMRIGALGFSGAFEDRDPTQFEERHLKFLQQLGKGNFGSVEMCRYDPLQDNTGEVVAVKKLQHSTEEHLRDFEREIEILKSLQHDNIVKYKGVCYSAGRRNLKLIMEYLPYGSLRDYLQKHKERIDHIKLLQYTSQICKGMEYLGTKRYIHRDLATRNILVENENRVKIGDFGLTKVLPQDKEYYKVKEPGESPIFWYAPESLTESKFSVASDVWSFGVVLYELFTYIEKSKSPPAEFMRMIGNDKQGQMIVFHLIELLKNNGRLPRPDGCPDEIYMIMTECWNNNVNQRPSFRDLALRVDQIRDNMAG
Procedure, shortened: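 Radiometric: 0.025 mU JAK2 with 2.5 μg polyGT, 1 μM ATP plus ^33P-ATP in MOPS pH 7.5 buffer, 1% DMSO, 90 min at 30° C.; filter counting. Alternative TR-FRET format with Ulight-JAK1 peptide, 60 min at room temperature, Eu-anti-phosphotyrosine detection.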

[3] = target: T3, human JAK1 (Homo sapiens, UniProt P23458); experiment: JAK1 inhibition assay (polyGT substrate / Ulight-JAK1 peptide); assay type: biochemical; conditions: recombinant human JAK1 catalytic domain; polyGT or Ulight-JAK1 peptide assay
T3 construct: catalytic domain, amino acids 866-1154; catalog number PV4774; purchased Invitrogen PV4774
T3 sequence (P23458 866-1154): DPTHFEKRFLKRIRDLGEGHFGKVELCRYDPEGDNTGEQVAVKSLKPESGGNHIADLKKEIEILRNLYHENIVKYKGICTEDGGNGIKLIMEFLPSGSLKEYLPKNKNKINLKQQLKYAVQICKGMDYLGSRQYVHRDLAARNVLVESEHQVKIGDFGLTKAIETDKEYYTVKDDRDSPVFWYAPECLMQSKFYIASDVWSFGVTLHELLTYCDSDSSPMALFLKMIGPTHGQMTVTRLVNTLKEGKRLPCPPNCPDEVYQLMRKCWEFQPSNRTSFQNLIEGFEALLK
Procedure, shortened: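 Two formats. PolyGT radiometric: 45 min at 30 °C, stopped with phosphoric acid, counted as cpm. Ulight-JAK1 peptide: 60 min at room temperature, stopped with Eu-anti-phosphotyrosine/EDTA, read as RFU. Percent inhibition normalised to vehicle and 10 μM staurosporine.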

[4] = test system: CTLL-2 cell line; experiment: CTLL2 viability assay; assay type: cell-based; conditions: Mus musculus, IL-2 dependent CTLL2 viability, 24 h, ATP-lite
Source text: The protocol describes the methods to analyse the activity of compounds on their ability to sustain the IL2-dependent viability of CTLL2.
Final DMSO concentration was 0.1%.

[5] = test system: BA/F3 cell line; experiment: BA/F3 viability assay; conditions: Mus musculus, BaF3, 48 h, read-out: BA/F3 IC50
[6] = target: T4, human JAK3 (Homo sapiens, UniProt P52333); experiment: JAK3 inhibition assay; assay type: biochemical; conditions: recombinant human JAK3 catalytic domain; polyGT substrate
T4 construct: catalytic domain (amino acids 781-1124; catalog number PV3855); purchased Invitrogen PV3855
T4 sequence (P52333 781-1124): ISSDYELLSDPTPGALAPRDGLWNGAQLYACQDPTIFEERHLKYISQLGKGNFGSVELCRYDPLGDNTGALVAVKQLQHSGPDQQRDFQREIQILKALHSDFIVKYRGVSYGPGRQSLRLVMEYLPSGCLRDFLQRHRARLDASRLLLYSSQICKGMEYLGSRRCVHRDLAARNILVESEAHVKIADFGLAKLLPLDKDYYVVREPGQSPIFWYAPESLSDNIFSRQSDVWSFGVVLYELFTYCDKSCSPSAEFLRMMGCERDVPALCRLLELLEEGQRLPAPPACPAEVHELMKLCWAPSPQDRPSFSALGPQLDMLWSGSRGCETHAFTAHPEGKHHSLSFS
Procedure, shortened: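 Radiometric kinase assay: 0.5 ng JAK3 with 2.5 μg polyGT in Tris pH 7.5/MgCl2 buffer, 1 μM ATP plus 0.25 μCi 33P-γ-ATP, 1% DMSO, 45 min at 30 °C, stopped with phosphoric acid.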

Structure (SMILES) | IC50 [1] [nM] | IC50 [2] [nM] | IC50 [3] [nM] | IC50 [4] [nM] | IC50 [5] [µM] | IC50 [6] [nM]
CCc1cc(C2(CC#N)COC2)ccc1N(C)c1cc2c(cn1)ncn2C [Compound 389, (3-{3-Ethyl-4-[methyl-(1-methyl-1H-imidazo[4,5-c]pyridin-6-yl)-amino]-phenyl}-oxetan-3-yl)-acetonitrile] | 0.01 to 100 | 0.01 to 100 | 0.01 to 100 | > 1000 | > 5 | 0.01 to 100
CCc1cc(C(C#N)N2CCN(S(C)(=O)=O)CC2)ccc1N(C)c1cc2c(cn1)ncn2C (stereo not drawn) [Compound 390, {3-Ethyl-4-[methyl-(1-methyl-1H-imidazo[4,5-c]pyridin-6-yl)-amino]-phenyl}-(4-methanesulfonyl-piperazin-1-yl)-acetonitrile] | 0.01 to 100 | 0.01 to 100 | 0.01 to 100 | > 1000 | > 5 | 0.01 to 100
CCc1cc(C(C#N)N2CC(C#N)C2)ccc1N(C)c1cc2c(cn1)ncn2C (stereo not drawn) [Compound 391, 1-(Cyano-{3-ethyl-4-[methyl-(1-methyl-1H-imidazo[4,5-c]pyridin-6-yl)-amino]-phenyl}-methyl)-azetidine-3-carbonitrile] | 0.01 to 100 | 0.01 to 100 | 0.01 to 100 | > 1000 | 1 to 5 | 101 to 500
CCc1cc(C2(CCNS(C)(=O)=O)COC2)ccc1N(C)c1cc2c(cn1)ncn2C [Compound 392, N-[2-(3-{3-Ethyl-4-[methyl-(1-methyl-1H-imidazo[4,5-c]pyridin-6-yl)-amino]-phenyl}-oxetan-3-yl)-ethyl]-methanesulfonamide] | 0.01 to 100 | 0.01 to 100 | 0.01 to 100 | > 1000 | > 5 | 101 to 500
CCc1cc(C(C#N)N2CCOCC2)ccc1N(C)c1cc2c(cn1)ncn2C (stereo not drawn) [Compound 393, {3-Ethyl-4-[methyl-(1-methyl-1H-imidazo[4,5-c]pyridin-6-yl)-amino]-phenyl}-morpholin-4-yl-acetonitrile] | 0.01 to 100 | 0.01 to 100 | 0.01 to 100 | > 1000 | > 5 | 0.01 to 100
CCc1cc(C(C#N)N2CCC2)ccc1N(C)c1cc2c(cn1)ncn2C (stereo not drawn) [Compound 394] | 0.01 to 100 | 0.01 to 100 | 0.01 to 100 | > 1000 | 1 to 5 | 101 to 500
CCc1cc(C(C#N)N2CCC(F)(F)CC2)ccc1N(C)c1cc2c(cn1)ncn2C (stereo not drawn) [Compound 395, (4,4-Difluoro-piperidin-1-yl)-{3-ethyl-4-[methyl-(1-methyl-1H-imidazo[4,5-c]pyridin-6-yl)-amino]-phenyl}-acetonitrile] | 0.01 to 100 | 0.01 to 100 | 0.01 to 100 | > 1000 | > 5 | 101 to 500
CCc1cc(C(C#N)N2CCN(C(C)=O)CC2)ccc1N(C)c1cc2c(cn1)ncn2C (stereo not drawn) [Compound 396, (4-Acetyl-piperazin-1-yl)-{3-ethyl-4-[methyl-(1-methyl-1H-imidazo[4,5-c]pyridin-6-yl)-amino]phenyl}-acetonitrile] | 0.01 to 100 | 0.01 to 100 | 0.01 to 100 | > 1000 | > 5 | 0.01 to 100
CCc1cc(C2(CCNS(=O)(=O)C(F)F)COC2)ccc1N(C)c1cc2c(cn1)ncn2C [Compound 397, N-[2-(3-{3-Ethyl-4-[methyl-(1-methyl-1H-imidazo[4,5-c]pyridin-6-yl)-amino]-phenyl}-oxetan-3-yl)-ethyl]-C,C-difluoro-methanesulfonamide] | 0.01 to 100 | 0.01 to 100 | 0.01 to 100 | > 1000 | 1 to 5 | 0.01 to 100
CCc1cc(C2(COS(=O)(=O)C(F)F)CCNC2)ccc1N(C)c1cc2c(cn1)ncn2C (stereo not drawn) [Compound 398, difluoro-methanesulfonic acid 3-{3-ethyl-4-[methyl-(1-methyl-1H-imidazo[4,5-c]pyridin-6-yl)-amino]-phenyl}-pyrrolidin-3-ylmethyl ester] | 101 to 500 | 0.01 to 100 | 0.01 to 100 | > 1000 | 1 to 5 | 0.01 to 100
CCc1cc(N2CC(C(=O)NC)C2)ncc1N(C)c1cc2c(cn1)ncn2C [Compound 400, 1-{4-Ethyl-5-[methyl-(1-methyl-1H-imidazo[4,5-c]pyridin-6-yl)-amino]-pyridin-2-yl}-azetidine-3-carboxylic acid methylamide] | 501 to 1000 | 501 to 1000 | 101 to 500 | > 1000 | > 5 | > 1000
CCc1cc(N2CC(C#N)C2)ncc1N(C)c1cc2c(cn1)ncn2C [Compound 402, 1-{4-Ethyl-5-[methyl-(1-methyl-1H-imidazo[4,5-c]pyridin-6-yl)-amino]-pyridin-2-yl}-azetidine-3-carbonitrile] | 0.01 to 100 | 0.01 to 100 | 0.01 to 100 | > 1000 | 1 to 5 | 101 to 500
CN(c1cc2c(cn1)ncn2C)c1c(F)cc(CNS(C)(=O)=O)cc1F [Compound 404, N-{3,5-Difluoro-4[methyl-(1-methyl-1H-imidazo[4,5-c]pyridin-6-yl)-amino]-benzyl}-methanesulfonamide] | 101 to 500 | 0.01 to 100 | 0.01 to 100 | > 1000 | > 5 | 101 to 500
CN(c1cc2c(cn1)ncn2C)c1c(F)cc(CC#N)cc1F [Compound 405, {3,5-Difluoro-4-[methyl-(1-methyl-1H-imidazo[4,5-c]pyridin-6-yl)-amino]-phenyl}-acetonitrile] | 0.01 to 100 | 0.01 to 100 | 0.01 to 100 | > 1000 | 1 to 5 | 501 to 1000
CCc1cc(CC#N)ccc1N(C)c1cc2c(cn1)ncn2C [Compound 406, {3-Ethyl-4-[methyl-(1-methyl-1H-imidazo[4,5-c]pyridin-6-yl)-amino]-phenyl}-acetonitrile] | 0.01 to 100 | 0.01 to 100 | 0.01 to 100 | 501 to 1000 | 1 to 5 | 0.01 to 100
CCc1cc(CC#N)ncc1N(C)c1cc2c(cn1)ncn2C [Compound 407, {4-Ethyl-5-[methyl-(1-methyl-1H-imidazo[4,5-c]pyridin-6-yl)-amino]-pyridin-2-yl}-acetonitrile] | 101 to 500 | 0.01 to 100 | 0.01 to 100 | > 1000 | > 5 | 501 to 1000
CN(c1cc2c(cn1)ncn2C)c1c(F)cc(C2CN(S(C)(=O)=O)C2)cc1F [Compound 409, [2,6-Difluoro-4-(1-methanesulfonyl-azetidin-3-yl)-phenyl]-methyl-(1-methyl-1H-imidazo[4,5-c]pyridin-6-yl)-amine] | > 1000 | 101 to 500 | 0.01 to 100 | > 1000 | > 5 | 501 to 1000
CCc1cc(C(C#N)N2CCNC(=O)C2)ccc1N(C)c1cc2c(cn1)ncn2C (stereo not drawn) [Compound 410, {3-Ethyl-4-[methyl-(1-methyl-1H-imidazo[4,5-c]pyridin-6-yl)-amino]-phenyl}-(3-oxo-piperazin-1-yl)-acetonitrile] | 0.01 to 100 | 0.01 to 100 | 0.01 to 100 | > 1000 | > 5 | 0.01 to 100
